Measured values from ChEMBL document CHEMBL1641527, “Design and synthesis of aryl ether and sulfone hydroxamic acids as potent histone deacetylase (HDAC) inhibitors” (Bioorg Med Chem Lett, 2011).

Experiment: Inhibition of HDAC by [3H]acetate-radiolabelled peptide substrate assay with scintillation counting

Q: With CC(/C=C/C(=O)O)=C\C(C)Oc1cccc(Cl)c1 (stereo not drawn) as the molecule, how does the IC50 read?
A: > 1000 nM

Q: With CC(/C=C/C(=O)O)=C\C(C)Oc1ccc(Br)cc1Br (stereo not drawn) as the molecule, how does the IC50 read?
A: > 1000 nM

Q: With CC(/C=C/C(=O)O)=C\COc1cccc(-c2ccccc2)c1 as the molecule, how does the IC50 read?
A: > 1000 nM

Q: For CC(/C=C/C(=O)O)=C\C(C)Oc1cccc(-c2ccccc2)c1 (stereo not drawn), which IC50 is on record?
A: > 1000 nM

Q: With CC(/C=C/C(=O)O)=C\C(C)Oc1cccc(Cc2ccccc2)c1 (stereo not drawn) as the molecule, how does the IC50 read?
A: > 50000 nM

Q: For COc1ccc(OC/C=C(C)/C=C/C(=O)O)cc1, which IC50 is on record?
A: > 1000 nM

Q: Which IC50 does the source give for CC(/C=C/C(=O)O)=C\C(C)Oc1cccc(C(F)(F)F)c1 (stereo not drawn) here?
A: > 50000 nM

Q: Which IC50 does the source give for CCCCCCOc1ccc(OC(C)/C=C(C)/C=C/C(=O)O)cc1 (stereo not drawn) here?
A: > 1000 nM

Q: With CC(/C=C/C(=O)O)=C\COc1cccc2c1CCCC2 as the molecule, how does the IC50 read?
A: > 1000 nM

Q: For CC(/C=C/C(=O)O)=C\C(C)Oc1cccc2c1CCCC2 (stereo not drawn), which IC50 is on record?
A: > 50000 nM

Q: Which IC50 does the source give for CC(/C=C/C(=O)O)=C\COc1ccc(C(C)C)cc1 here?
A: > 1000 nM

Q: For CC(/C=C/C(=O)O)=C\C(C)Oc1ccc(C(C)C)cc1 (stereo not drawn), which IC50 is on record?
A: > 50000 nM

Q: With CC(/C=C/C(=O)NO)=C\COc1cccc(Cl)c1 as the molecule, how does the IC50 read?
A: 188 nM

Q: Which IC50 does the source give for CC(/C=C/C(=O)NO)=C\COc1ccc(Br)cc1Br here?
A: 890 nM

Q: With CC(/C=C/C(=O)NO)=C\COc1cccc(-c2ccccc2)c1 as the molecule, how does the IC50 read?
A: 41 nM

Q: For CC(/C=C/C(=O)NO)=C\C(C)Oc1cccc(-c2ccccc2)c1 (stereo not drawn), which IC50 is on record?
A: 55 nM

Q: Which IC50 does the source give for CC(/C=C/C(=O)NO)=C\COc1cccc(Cc2ccccc2)c1 here?
A: 1200 nM

Q: Which IC50 does the source give for COc1ccc(OC/C=C(C)/C=C/C(=O)NO)cc1 here?
A: 68 nM

Q: With CC(/C=C/C(=O)NO)=C\COc1cccc(C(F)(F)F)c1 as the molecule, how does the IC50 read?
A: 18 nM

Q: With COc1ccc2ccc(OC/C=C(C)/C=C/C(=O)NO)cc2c1 as the molecule, how does the IC50 read?
A: 20 nM

Q: With CCCCCCOc1ccc(OC(C)/C=C(C)/C=C/C(=O)NO)cc1 (stereo not drawn) as the molecule, how does the IC50 read?
A: 1100 nM

Q: With CC(/C=C/C(=O)NO)=C\C(C)Oc1ccc(-c2ccc(Br)cc2)cc1 (stereo not drawn) as the molecule, how does the IC50 read?
A: 162 nM

Q: For CC(=O)c1ccc(OC(C)/C=C(C)/C=C/C(=O)NO)cc1 (stereo not drawn), which IC50 is on record?
A: > 50000 nM

Q: Which IC50 does the source give for CC(/C=C/C(=O)O)=C\C(C)S(=O)(=O)c1ccc(Br)cc1 (stereo not drawn) here?
A: > 1000 nM

Q: Which IC50 does the source give for CC(/C=C/C(=O)O)=C\C(C)S(=O)(=O)c1ccc(Cl)cc1 (stereo not drawn) here?
A: > 1000 nM

Q: Which IC50 does the source give for CC(/C=C/C(=O)O)=C\C(C)S(=O)(=O)c1ccc(F)cc1 (stereo not drawn) here?
A: > 1000 nM

Q: With CC(/C=C/C(=O)O)=C\C(C)S(=O)(=O)c1ccc(C)c(C)c1 (stereo not drawn) as the molecule, how does the IC50 read?
A: > 1000 nM

Q: For CC(/C=C/C(=O)O)=C\C(C)S(=O)(=O)c1ccc(C)cc1C (stereo not drawn), which IC50 is on record?
A: > 1000 nM

Q: With CC(/C=C/C(=O)NO)=C\C(C)S(=O)(=O)c1ccc(Br)cc1 (stereo not drawn) as the molecule, how does the IC50 read?
A: > 1000 nM

Q: Which IC50 does the source give for CC(/C=C/C(=O)NO)=C\C(C)S(=O)(=O)c1ccc(C)cc1 (stereo not drawn) here?
A: > 1000 nM

Q: Which IC50 does the source give for COc1ccc(S(=O)(=O)C(C)/C=C(C)/C=C/C(=O)NO)cc1 (stereo not drawn) here?
A: > 1000 nM

Q: With CC(=O)Nc1ccc(S(=O)(=O)C(C)/C=C(C)/C=C/C(=O)NO)cc1 (stereo not drawn) as the molecule, how does the IC50 read?
A: > 1000 nM

Q: Which IC50 does the source give for COc1cccc(S(=O)(=O)C(C)/C=C(C)/C=C/C(=O)NO)c1 (stereo not drawn) here?
A: > 1000 nM

Q: With CC(/C=C/C(=O)NO)=C\C(C)S(=O)(=O)c1ccc(Cl)c(Cl)c1 (stereo not drawn) as the molecule, how does the IC50 read?
A: > 1000 nM

Q: Which IC50 does the source give for CC(/C=C/C(=O)NO)=C\C(C)S(=O)(=O)c1cnc2cc(C)ccc2c1 (stereo not drawn) here?
A: > 1000 nM

Q: Which IC50 does the source give for CC(/C=C/C(=O)NO)=C\C(C)S(=O)(=O)c1cn(C)cn1 (stereo not drawn) here?
A: > 1000 nM

Q: For CC(/C=C/C(=O)NO)=C\C(C)S(=O)(=O)c1nc(C)cc(C)n1 (stereo not drawn), which IC50 is on record?
A: > 1000 nM

Q: For CC(/C=C/C(=O)NO)=C\[C@@H](C)C(=O)c1ccc(N(C)C)cc1 [TRICHOSTATIN], which IC50 is on record?
A: 3 nM
